Columns and labels:
SK-OV-3 = assay: NCI cytotoxicity screen, Ovarian Cancer panel; type: cell-based; settings: Homo sapiens, single dose 10 µM, negative = lethal, read-out: Percent growth inhibition
Description: (§1) Cytotoxicity was performed at National Cancer Institute (NCI), Bethesda, USA as per their protocols.

IGROV1 = assay: NCI cytotoxicity screen, Ovarian Cancer panel; type: cell-based; settings: Homo sapiens, IGROV-1, single dose 10 µM, negative = lethal, read-out: Percent growth inhibition
Description: as §1

OVCAR-4 = assay: NCI cytotoxicity screen, Ovarian Cancer panel; type: cell-based; settings: Homo sapiens; OVCAR-4; single dose 10 µM; negative = lethal; read-out: Percent growth inhibition
Description: as §1

NCI/ADR-RES = assay: NCI cytotoxicity screen, Ovarian Cancer panel; type: cell-based; settings: Homo sapiens, single dose 10 µM, negative = lethal, read-out: Percent growth inhibition
Description: as §1

OVCAR-5 = assay: NCI cytotoxicity screen, Ovarian Cancer panel; type: cell-based; settings: Homo sapiens, single dose 10 µM, negative = lethal, read-out: Percent growth inhibition
Description: as §1

OVCAR-8 = assay: NCI cytotoxicity screen, Ovarian Cancer panel; type: cell-based; settings: Homo sapiens, single dose 10 µM, negative = lethal, read-out: Percent growth inhibition
Description: as §1

PC-3 = assay: NCI cytotoxicity screen, Prostate Cancer panel; type: cell-based, human; settings: Homo sapiens, single dose 10 µM, negative = lethal, read-out: Percent growth inhibition
Description: as §1

DU-145 = assay: NCI cytotoxicity screen, Prostate Cancer panel; type: cell-based, human; settings: Homo sapiens, single dose 10 µM, negative = lethal, read-out: Percent growth inhibition
Description: as §1

SN12C = assay: NCI cytotoxicity screen, Renal Cancer panel; type: cell-based; settings: Homo sapiens, single dose 10 µM, negative = lethal, read-out: Percent growth inhibition
Description: as §1

RXF 393 = assay: NCI cytotoxicity screen, Renal Cancer panel; type: cell-based; settings: Homo sapiens, single dose 10 µM, negative = lethal, read-out: Percent growth inhibition
Description: as §1

ACHN = assay: NCI cytotoxicity screen, Renal Cancer panel; type: cell-based; settings: Homo sapiens, single dose 10 µM, negative = lethal, read-out: Percent growth inhibition
Description: as §1

UO-31 = assay: NCI cytotoxicity screen, Renal Cancer panel; type: cell-based; settings: Homo sapiens, single dose 10 µM, negative = lethal, read-out: Percent growth inhibition
Description: as §1

A498 = assay: NCI cytotoxicity screen, Renal Cancer panel; type: cell-based; settings: Homo sapiens, single dose 10 µM, negative = lethal, read-out: Percent growth inhibition
Description: as §1

KM12 = assay: NCI cytotoxicity screen, Colon Cancer panel; type: cell-based, human; settings: Homo sapiens, single dose 10 µM, negative = lethal, read-out: Percent growth inhibition
Description: as §1

HCC-2998 = assay: NCI cytotoxicity screen, Colon Cancer panel; type: cell-based, human; settings: Homo sapiens; HCC-2998; single dose 10 µM; negative = lethal; read-out: Percent growth inhibition
Description: as §1

SW-620 = assay: NCI cytotoxicity screen, Colon Cancer panel; type: cell-based, human; settings: Homo sapiens, single dose 10 µM, negative = lethal, read-out: Percent growth inhibition
Description: as §1

HCT-116 = assay: NCI cytotoxicity screen, Colon Cancer panel; type: cell-based; settings: Homo sapiens, single dose 10 µM, negative = lethal, read-out: Percent growth inhibition
Description: as §1

HT29 = assay: NCI cytotoxicity screen, Colon Cancer panel; type: cell-based; settings: Homo sapiens, HT-29; HT29; single dose 10 µM; negative = lethal; read-out: Percent growth inhibition
Description: as §1

HCT-15 = assay: NCI cytotoxicity screen, Colon Cancer panel; type: cell-based; settings: Homo sapiens, single dose 10 µM, negative = lethal, read-out: Percent growth inhibition
Description: as §1

COLO 205 = assay: NCI cytotoxicity screen, Colon Cancer panel; type: cell-based; settings: Homo sapiens, single dose 10 µM, negative = lethal, read-out: Percent growth inhibition
Description: as §1

LOX IMVI = assay: NCI cytotoxicity screen, Melanoma panel; type: cell-based, human; settings: Homo sapiens, single dose 10 µM, negative = lethal, read-out: Percent growth inhibition
Description: as §1

M14 = assay: NCI cytotoxicity screen, Melanoma panel; type: cell-based, human; settings: Homo sapiens, single dose 10 µM, negative = lethal, read-out: Percent growth inhibition
Description: as §1

MDA-MB-468 = assay: NCI cytotoxicity screen, Breast Cancer panel; type: cell-based; settings: Homo sapiens, single dose 10 µM, negative = lethal, read-out: Percent growth inhibition
Description: as §1

HS 578 T = assay: NCI cytotoxicity screen, Breast Cancer panel; type: cell-based; settings: Homo sapiens; HS 578T; single dose 10 µM; negative = lethal; read-out: Percent growth inhibition
Description: as §1

MCF7 = assay: NCI cytotoxicity screen, Breast Cancer panel; type: cell-based; settings: Homo sapiens, single dose 10 µM, negative = lethal, read-out: Percent growth inhibition
Description: as §1

T-47D = assay: NCI cytotoxicity screen, Breast Cancer panel; type: cell-based; settings: Homo sapiens, T47D, T-47D; single dose 10 µM; negative = lethal; read-out: Percent growth inhibition
Description: as §1

BT-549 = assay: NCI cytotoxicity screen, Breast Cancer panel; type: cell-based; settings: Homo sapiens, single dose 10 µM, negative = lethal, read-out: Percent growth inhibition
Description: as §1

MDA-MB-231/ATCC = assay: NCI cytotoxicity screen, Breast Cancer panel; type: cell-based; settings: Homo sapiens, MDA-MB-231, read-out: Percent growth inhibition
Description: as §1

MOLT-4 = assay: NCI cytotoxicity screen, Leukemia panel; type: cell-based; settings: Homo sapiens, MOLT-4, MOLT-4; single dose 10 µM; negative = lethal; read-out: Percent growth inhibition
Description: as §1

Brc1cn2ccnc2c(-c2ccc3c(c2)ncn3C2CCCCC2)n1 [Compound 8, 6-bromo-8-(1-cyclohexyl-1H-benzo[d]imidazol-5-yl)imidazo[1,2-a]pyrazine]
inhibition at 10 µM (SK-OV-3): 6.59% | inhibition at 10 µM (IGROV1): 8.45% | inhibition at 10 µM (OVCAR-4): 9.25% | inhibition at 10 µM (NCI/ADR-RES): 5.47% | inhibition at 10 µM (OVCAR-5): < 1% | inhibition at 10 µM (OVCAR-8): 3.55% | inhibition at 10 µM (PC-3): 10.3% | inhibition at 10 µM (DU-145): < 1% | inhibition at 10 µM (SN12C): < 1% | inhibition at 10 µM (RXF 393): < 1% | inhibition at 10 µM (ACHN): < 1% | inhibition at 10 µM (UO-31): 40.1% | inhibition at 10 µM (A498): 3.51% | inhibition at 10 µM (KM12): < 1% | inhibition at 10 µM (HCC-2998): 3.13% | inhibition at 10 µM (SW-620): < 1% | inhibition at 10 µM (HCT-116): 6.06% | inhibition at 10 µM (HT29): 4.48% | inhibition at 10 µM (HCT-15): 4.25% | inhibition at 10 µM (COLO 205): < 1% | inhibition at 10 µM (LOX IMVI): 9.14% | inhibition at 10 µM (M14): < 1% | inhibition at 10 µM (MDA-MB-468): 6.27% | inhibition at 10 µM (HS 578 T): 2.68% | inhibition at 10 µM (MCF7): 37.6% | inhibition at 10 µM (T-47D): 25.3% | inhibition at 10 µM (BT-549): 6.38% | inhibition at 10 µM (MDA-MB-231/ATCC): 3.12% | inhibition at 10 µM (MOLT-4): 17.4%

From article PMC7162861, “Synthesis, cytotoxicity, pharmacokinetic profile, binding with DNA and BSA of new imidazo[1,2-a]pyrazine-benzo[d]imidazol-5-yl hybrids” (Scientific Reports, 2020)
